Test results published in patent publication US9079906B2, “Triazolopyridazines as PAR1 inhibitors, production thereof, and use as medicaments” (Sanofi, priority 2008, dated 2015).
Counter-ions that a name gives are not always drawn.

What follows are compounds tested against T1, PAR1 (Homo sapiens (Human), UniProt P25116) (assay: PAR1 binding test (radioligand displacement, membrane preparation)). Conditions: human PAR1 expressed in High Five insect cell membranes; radioligand 20 nM; read-out: Inhibition of binding IC50.
T1 sequence (P25116 22-425): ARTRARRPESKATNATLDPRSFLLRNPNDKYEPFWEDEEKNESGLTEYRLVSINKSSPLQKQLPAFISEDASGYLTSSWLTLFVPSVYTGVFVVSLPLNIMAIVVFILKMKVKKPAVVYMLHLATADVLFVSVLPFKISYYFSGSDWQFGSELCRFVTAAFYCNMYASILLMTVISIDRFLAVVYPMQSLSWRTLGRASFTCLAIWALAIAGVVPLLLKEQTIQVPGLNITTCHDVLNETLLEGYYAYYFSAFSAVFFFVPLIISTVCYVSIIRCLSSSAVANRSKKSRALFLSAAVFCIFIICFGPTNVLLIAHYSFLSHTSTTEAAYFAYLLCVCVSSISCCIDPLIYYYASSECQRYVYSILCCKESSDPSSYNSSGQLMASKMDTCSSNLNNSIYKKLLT
Experimental: The synthesized substances were examined in a PAR1 binding test. This tested whether the substances can inhibit the binding of a radioactively labeled PAR1 agonist known from the literature at the PAR1 receptor (Ho-Sam Ahn, Mol Pharm, 51:350-356, 1997). The human PAR1 receptor was expressed transiently in High Five insect cells. From these cells, after 48 hours, a membrane preparation was produced by standard methods, aliquoted into 10 mM Tris-HCl; 0.3 mM EDTA; 1 mM EGTA; 250 mM sucrose pH 7.5, and stored at −80° C.
The substances were preincubated with the membrane at room temperature for 15 minutes, then the radioligand (ALA-(para-F-Phe)-Arg-ChA-homoArg-(3,4-^3H-Tyr)-NH2; approx. 40 Ci/mMol) was added. The end concentration of the radioligand in the test buffer (50 mM Tris-HCl; 10 mM MgCl2; 1 mM EGTA; 0.1% BSA; 2% DMSO) was 20 nM, that of the membrane 1 mg/ml. After an incubation time of 60 minutes, 25 μL of the mixture were transferred to a 96-well MultiScreenHTS FB microtiter filtration plate (from Millipore), which had been pretreated beforehand with a 0.75% aqueous polyethyleneimine solution for 5 hours at room temperature. Thereafter, with vacuum extraction, each well was washed four times with 300 μL of buffer (50 mM Tris-HCl; 10 mM MgCl2; 1 mM EGTA). The plate was then dried overnight, 100 μl of scintillator per well were added, and the plate was analyzed after 6 hours in a Wallac MicroBeta (from PerkinElmer) liquid scintillation counter. The nonspecific binding was determined in the presence of 100 μM SCH79797 (PAR-1 antagonist; from Tocris, Cat. No. 1592) and subtracted from all measurements. The 100% value used was a control without inhibitor. The % inhibition values of a substance dilution series were used to calculate the IC50 with the aid of nonlinear regression analysis according to the 4-parameter equation.
Compound `CCNC(=O)c1nn2/c(=N/C)n(CC(=O)c3cc(OCCCO)c(OC)c(C(C)(C)C)c3)nc2c(C)c1C` [Example 239, N-ethyl-2-{2-[3-tert-butyl-5-(3-hydroxypropoxy)-4-methoxy-phenyl]-2-oxoethyl}-7,8-dimethyl-3-[(E)-methylimino]-2,3-dihydro-[1,2,4]triazolo[4,3-b]pyridazine-6-carboxamide hydrochloride] has an IC50 of 113 nM. For `CC(C)Oc1cc(OC(C)C)c2nn(CC(=O)c3cc(OCCO)cc(C(C)(C)C)c3)c(=N)n2n1` [Example 240, 1-[3-tert-butyl-5-(2-hydroxy-ethoxy)phenyl]-2-(3-imino-6,8-diisopropoxy-[1,2,4]triazolo[4,3-b]pyridazin-2-yl)ethanone hydrochloride], the IC50 was 484 nM.

What follows are compounds tested against T1, PAR1 (assay: Inhibition of PAR1-mediated platelet aggregation induced by TRAP). Conditions: TRAP-induced aggregation of washed platelets from healthy volunteer donors, 96-well format.
Type: cell-based
Experimental: PAR1 determination method: inhibition of PAR1-mediated platelet aggregation
The pharmacological testing of the substances took place in platelet aggregation induced by TRAP (thrombin receptor-activating peptide) in 96-well format. For this purpose, blood was taken from healthy volunteer donors in 20 ml syringes containing 2 ml of 3.13% sodium citrate solution. After centrifugation at 150×g for 20 minutes, the platelet-rich plasma (PRP) was separated off and mixed with 1 μl of PGE1 solution (500 μg/ml in ethanol)/ml of PRP. Incubation at RT for 5 minutes was followed by centrifugation at 120×g for 15 minutes to remove the leukocytes. The leukocyte-free PRP was transferred in 5 ml portions into 15 ml PP tubes and centrifuged at 360×g for 15 minutes in order to pellet the platelets. The plasma was then decanted off and the platelet sediment from 5 ml of PRP was resuspended in 1 ml of Tyrode's (120 mM NaCl, 2.6 mM KCl, 12 mM NaHCO3, 0.39 mM NaH2PO4×H2O, 10 mM HEPES, 0.35% BSA, 5.5 mM glucose, pH 7.4) and adjusted with Tyrode's to a platelet count of 3×10^5/microliter (μL). 13 ml of this cell suspension were then mixed with 866 μL of 10 mM CaCl2 solution, and 120 μL thereof were pipetted into each well of a 96-well plate containing 15 μL of the substance to be tested. After incubation at room temperature in the dark for 30 minutes, 15 μL of a TRAP solution (70-100 μM) were added as agonist, and kinetics were recorded at 650 nm in a SpectraMax 340 at 37° C. for 20 minutes while shaking. The areas under the curves of negative control (Tyrode's/DMSO) and positive control (15 μl of agonist/DMSO) were calculated and the difference was fixed as the 100% value. The substances to be tested were pipetted as serial dilutions in duplicate determination, the AUC was likewise determined for each substance concentration, and the % inhibition of the AUC compared with the control was calculated. On the basis of the % inhibition, the IC50 was calculated by nonlinear regression analysis according to the 4-parameter equation.
For `CCOc1ccc2nn(CC(=O)c3cc(NC(C)=O)cc(S(F)(F)(F)(F)F)c3)c(=N)n2n1` [Example 1, N-[3-[2-(6-Ethoxy-3-imino-[1,2,4]triazolo[4,3-b]pyridazin-2-yl)acetyl]-5-(pentafluorosulfanyl)phenyl]acetamide as the trifluoroacetic acid salt], the IC50 was 650 nM. `CC(C)(C)c1cc(C(=O)Cn2nc3ccc(Cl)nn3c2=N)cc(C(C)(C)C)c1O` [Example 2, 2-(6-chloro-3-imino-[1,2,4]triazolo[4,3-b]pyridazin-2-yl)-1-(3,5-di-tert-butyl-4-hydroxyphenyl)ethanone] showed an IC50 of 1600 nM. `CCOc1ccc2nn(CC(=O)c3cc(N4CCOCC4)c(OC)c(C(F)(F)F)c3)c(=N)n2n1` [Example 5, 2-(6-Ethoxy-3-imino-[1,2,4]triazolo[4,3-b]pyridazin-2-yl)-1-(4-methoxy-3-morpholin-4-yl-5-trifluormethylphenyl)ethanone trifluoroacetic acid salt] was tested, and the IC50 was 8500 nM. `CCOc1ccc2nn(CC(=O)c3cc(N4CCOCC4)c(OC)c(C(C)(C)C)c3)c(=N)n2n1` [Example 7, 1-(3-tert-butyl-4-methoxy-5-morpholin-4-ylphenyl)-2-(6-ethoxy-3-imino-[1,2,4]triazolo[4,3-b]pyridazin-2-yl)ethanone trifluoroacetic acid salt] showed an IC50 of 158 nM. `CCC(CC)Oc1ccc2nn(CC(=O)c3cc(NC)cc(S(F)(F)(F)(F)F)c3)c(=N)n2n1` [Example 16, 2-[6-(1-ethylpropoxy)-3-imino-[1,2,4]triazolo[4,3-b]pyridazin-2-yl]-1-[3-methylamino-5-(pentafluorosulfanyl)phenyl]ethanone trifluoroacetic acid salt] gave an IC50 of 127 nM. For `CCC(CC)Oc1cc(C)c2nn(CC(=O)c3cc(OCCOC)cc(C(C)(C)C)c3)c(=N)n2n1` [Example 66, 1-[3-tert-butyl-5-(2-methoxy-ethoxy)phenyl]-2-[6-(1-ethylpropoxy)-3-imino-8-methyl-[1,2,4]triazolo[4,3-b]pyridazin-2-yl]ethanone hydrochloride], the IC50 was 25 nM. With `CCC(CC)Oc1cc(C)c2nn(CC(=O)c3cc(COCCCO)cc(C(C)(C)C)c3)c(=N)n2n1` [Example 77, 1-[3-tert-butyl-5-(3-hydroxy-propoxymethyl)phenyl]-2-[6-(1-ethylpropoxy)-3-imino-8-methyl-[1,2,4]triazolo[4,3-b]-pyridazin-2-yl]ethanone hydrochloride] the IC50 was 9 nM. `CCC(CC)Oc1nn2c(=N)n(CC(=O)c3cc(OC)cc(S(F)(F)(F)(F)F)c3)nc2c(C)c1C` [Example 85, 2-[6-(1-ethylpropoxy)-3-imino-7,8-dimethyl-[1,2,4]triazolo[4,3-b]pyridazin-2-yl]-1-[3-methoxy-5-(pentafluorosulfanyl)-phenyl]ethanone trifluoroacetic acid salt] gave an IC50 of 59 nM. With `CCC(CC)Oc1cc(C)c2nn(CC(=O)c3cc(OCCCO)cc(C(C)(C)C)c3)c(=N)n2n1` [Example 90, 1-[3-tert-butyl-5-(3-hydroxy-propoxy)phenyl]-2-[6-(1-ethyl-propoxy)-3-imino-8-methyl-[1,2,4]triazolo[4,3-b]pyridazin-2-yl]ethanone hydrochloride] the IC50 was 12 nM. Work on `COCC(COC)Oc1cc(C)c2nn(CC(=O)c3cc(OCCO)cc(C(C)(C)C)c3)c(=N)n2n1` [Example 98, 1-[3-tert-butyl-5-(2-hydroxy-ethoxy)phenyl]-2-[3-imino-6-(2-methoxy-1-methoxymethyl-ethoxy)-8-methyl-[1,2,4]triazolo[4,3-b]pyridazin-2-yl]ethanone hydrochloride] yielded an IC50 of 334 nM. With `CCN(CC)c1cc(C)c2nn(CC(=O)c3cc(OC)cc(S(F)(F)(F)(F)F)c3)c(=N)n2n1` [Example 108, 2-(6-diethylamino-3-imino-8-methyl-[1,2,4]triazolo[4,3-b]pyridazin-2-yl)-1-[3-methoxy-5-(pentafluorosulfanyl)phenyl]-ethanone trifluoroacetic acid salt] the IC50 was 16 nM.
